From patent publication US6410790B1, “3-amin3-arylpropan-1-ol compounds, their preparation and use” (priority 1999, dated 2002) come the findings set out here.

As a reminder, the inhibition in vivo is the drop in the measured response relative to a control, in per cent. By inhibition is commonly meant the percentage by which the read-out fell short of the control.

Assay [1] relates to phenylquinone-induced writhing reaction. Description: phenylquinone-induced writhing test in mice. It counts as in vivo. Particulars: male NMRI mice, phenylquinone i.p. 10 minutes later; for inhibition in vivo at 10 mg/kg: Mus musculus, iv, 10 min, 10 mg/kg intravenously. How it is done: Analgesic Effect in the Writhing Test in Mice
The analgesic effect was investigated in the phenylquinone-induced writhing test in mice (as modified by I. C. Hendershot and J. Forsaith (1959) J. Pharmacol. Exp. Ther. 125, 237-240). Male NMRI mice weighing 25 to 30 g were used for the test. Groups of 10 animals each received by intraperitoineal application, for each substance dose, 0.3 ml/mouse of a 0.02% aqueous solution of phenylquinone (phenylbenzoquinone, Sigma Company, Deisenhofen; solution prepared with addition of 5% of ethanol and kept in a water bath at 45° C.) 10 minutes after intravenous administration of the test substances. The animals were placed individually in observation cages. The number of pain-induced stretching movements (so-called writhing reactions=straightening of the body together with stretching of the rear extremities) was measured by means of a push-button counter 5 to 20 minutes after administration of the phenylquinone. Animals that had received only physiological saline solution served as controls. All substances were tested in the standard dose of 10 mg/kg. The percentage inhibition (% inhibition) of the writhing reaction produced by a substance was calculated according to the following formula: [formula]

The test system of assay [2] is benzothiazepine binding site of the L-type calcium channel. Put plainly: Diltiazem binding, L calcium channel. Also on record: species or system rat. Particulars: 10 μM, percentage inhibition, [3H]-cis-(+)-diltiazem 5 nM, rat cerebral cortex membranes. How it is done:
Binding Investigations in the L Calcium Channel
Benzothiazepine Binding Site (Diltiazem Binding)
The biological membrane material was isolated from the rat cerebral cortex. [^3H]-cis-(+)-diltiazem (5 nM in the assay) was used as ligand. The material was incubated for 20 minutes at 25° C. The radioactivity that is measured in the presence of (±)-diltiazem (10^−6 M in the assay) is defined as non-specific binding. After completion of incubation the non-bound fraction of the radioactive ligand is separated by means of a filtration process using Whatman Glasfiber GF/B membranes. The membranes are washed and the radioactivity is then measured using a β-counter. The method is based on the details published by Schoemaker and Langer (H. Schoemaker and S. Z. Langer (1985) Eur. J. Pharmacol. 111, 273-277).
(§1) For this purpose IC50 values are obtained, which can be converted to inhibitor constants (Ki) according to the “Cheng-Prusoff equation” (Y. C. Clieng and W. H. Prusoff (1973) Biochem. Pharmacol. 22, 3099-3108). The IC50 values were obtained by means of the computer program “Figure P” (version 6.0, Biosoft, Cambridge, England). Km values were calculated according to Lineweaver and Burk (H. Lineweaver and D. Burk (1934) J. Am. Chem. Soc. 56, 658-666). The “Ligand” computer program (version 4, Biosoft, England) was used to obtain Ken values.

For another assay, the target named is T1, NA transporter (Rattus norvegicus, UniProt Q63380).
T1 construct: synaptosomes are isolated fresh from rat brains; from tissue; host or cells: rat hypothalamus synaptosomes (P2 fraction)
T1 sequence (Q63380 1-617): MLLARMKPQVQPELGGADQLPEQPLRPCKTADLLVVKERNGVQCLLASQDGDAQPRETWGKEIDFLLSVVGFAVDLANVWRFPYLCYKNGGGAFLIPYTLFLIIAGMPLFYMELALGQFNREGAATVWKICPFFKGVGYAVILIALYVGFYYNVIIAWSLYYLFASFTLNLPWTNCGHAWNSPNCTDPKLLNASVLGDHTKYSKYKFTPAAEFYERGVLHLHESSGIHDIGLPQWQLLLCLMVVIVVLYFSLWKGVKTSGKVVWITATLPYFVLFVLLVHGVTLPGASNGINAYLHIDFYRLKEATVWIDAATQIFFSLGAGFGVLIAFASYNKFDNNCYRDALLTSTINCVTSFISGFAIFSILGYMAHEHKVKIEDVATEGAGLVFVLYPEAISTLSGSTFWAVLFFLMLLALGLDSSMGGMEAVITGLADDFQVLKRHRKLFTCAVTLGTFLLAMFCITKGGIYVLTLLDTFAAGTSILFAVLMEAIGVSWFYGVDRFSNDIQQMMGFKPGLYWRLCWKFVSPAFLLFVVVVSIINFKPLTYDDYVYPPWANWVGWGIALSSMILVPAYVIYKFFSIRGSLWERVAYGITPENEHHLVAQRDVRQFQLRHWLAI
Description: synaptosomal noradrenaline uptake inhibition (NA uptake inhibition). Format: biochemical. The conditions noted are these: for inhibition at 1 µM: read-out: NA Uptake Inhibition at 1 μM, 1 μM in the assay, synaptosomes from rat hypothalamus; for NA Uptake Inhibition at 1 μM: 1 μM in the assay, synaptosomes from rat hypothalamus. The protocol: In order to carry out these in vitro studies, synaptosomes are isolated fresh from rat brains. In each case a so-called “P2” fraction is used, which is prepared according to the protocol of Gray and Whittaker (E. G. Gray and V. P. Whittaker (1962) J. Anat. 76, 79-88).
(in each case N=4, i.e. mean values±SEM from 4 independent series of experiments that were carried out in the form of triple parallel experiments).
as §1

Assay [3] has as its system binding site 2 of the sodium channel. Put plainly: BTX binding, sodium channel. Particulars: 10 μM, percentage inhibition, [3H]-batrachotoxin A20 α-benzoate 10 nM, rat cerebral cortex synaptosomes. The protocol: Binding Investigations in the Sodium Channel
Binding Site 2 (BTX Binding)
The binding site 2 of the sodium channel is the so-called batrachotoxin (BTX) binding site. [^3H]-batrachlotoxin A20 α-benzoate (10 nM in the assay) was used as ligand. These ion channel particles (synaptosomes) were concentrated from rat cerebral cortex according to the procedure of Gray and Whittaker (E. G. Gray and V. P. Whittaker (1962) J. Anat. 76, 79-88). The radioactivity that is measured in the presence of veratridine (0.3 mM in the assay) is defined as non-specific binding. The material was incubated at 37° C. for 120 minutes. The assay conditions are carried out according to the protocol published by Pauwels, Leysen and Laduron (P. J. Pauwels, J. E. Leysen and P. M. Laduron (1986) Eur. J. Pharmacol. 124, 291-298).
(N=3, i.e. mean values±SEM from 3 independent series of experiments that were carried out in the form of triple parallel experiments).
as §1

`CN(C)C(c1ccccc1)C1CCCCC1(O)Cc1c(F)cccc1Cl.Cl` (stereo not shown) [Example 56, 1-(2-chloro-6-fluorobenzyl)-2-(dimethylaminophenylmethyl)cyclohexanol, hydrochloride]: in assay [1], 10 mg/kg produced 94% inhibition in vivo. In addition, the “Diltiazem Binding at 10 μM” value in assay [2] was 88%. The inhibition at 1 µM on NA transporter was found to be 92%. For the same compound, the “BTX Binding at 10 μM” value in assay [3] is 99%.
In turn, `CN(C)C(c1ccccc1)C1CCCCC1(O)Cc1cccc(F)c1F.Cl` (stereo not shown) [Example 57, 1-(2,3-difluorobenzyl)-2-(dimethylaminophenylmethyl)cyclohexanol, hydrochloride] had an inhibition in vivo at 10 mg/kg in assay [1] of 84%. In addition, the “Diltiazem Binding at 10 μM” value in assay [2] stood at 83%. For the same compound, the inhibition at 1 µM at NA transporter is 99%. Besides, the “BTX Binding at 10 μM” value in assay [3] is 97%.
As for `CN(C)C(c1ccc(Cl)cc1)C1CCCCC1(O)Cc1ccccc1.Cl` (stereo not shown) [Example 58, 1-benzyl-2-[(4-chlorophenyl)dimethylaminomethyl]cyclohexanol, hydrochloride], in assay [1], at 10 mg/kg the inhibition in vivo was 98%. Also, the “Diltiazem Binding at 10 μM” value in assay [2] worked out at 80%. Also, the inhibition at 1 µM on NA transporter came out at 0%. The “BTX Binding at 10 μM” value in assay [3] was 100%.
As to `CCC(O)(CCc1ccccc1)C(C)C(c1ccccc1)N(C)C.Cl` (stereo not shown) [Example 59, 1-dimethylamino-3-ethyl-2-methyl-1,5-diphenylpentan-3-ol, hydrochloride], the inhibition in vivo at 10 mg/kg in assay [1] is 59%. The “Diltiazem Binding at 10 μM” value in assay [2] came out at 64%. Moreover, the inhibition at 1 µM on NA transporter stood at 26%. For the same compound, in assay [3], the “BTX Binding at 10 μM” value is recorded as 86%.
The compound `CN(C)C(c1ccccc1Cl)C1CCCCC1(O)Cc1ccccc1Cl.Cl` (stereo not shown) [Example 60, 1-(2-chlorobenzyl)-2-[(2-chlorophenyl)dimethylaminomethyl]cyclohexanol, hydrochloride] came in with an inhibition in vivo at 10 mg/kg in assay [1] of 63%. Further, the “Diltiazem Binding at 10 μM” value in assay [2] was 79%. Moreover, the inhibition at 1 µM at NA transporter is 56%. Besides, in assay [3], the “BTX Binding at 10 μM” value is recorded as 95%.
On the same counts, the results for `CN(C)C(c1ccc(Br)cc1)C1CCCCC1(O)Cc1ccccc1.Cl` (stereo not shown) [Example 61, 1-benzyl-2-[(4-bromophenyl)dimethylaminomethyl]cyclohexanol, hydrochloride] are 90%, 89%, 100% and 98%.
On to `CN(C)C(c1ccc(Cl)cc1)C1CCCCC1(O)c1ccc(C(F)(F)F)cc1.Cl` (stereo not shown) [Example 62, 2-[(4-chlorophenyl)dimethylaminomethyl]-1-(4-trifluoromethylphenyl)cyclohexanol, hydrochloride], for which the inhibition in vivo at 10 mg/kg in assay [1] came to 94%. The “Diltiazem Binding at 10 μM” value in assay [2] was determined as 83%. For the same compound, the inhibition at 1 µM on NA transporter is 80%. Further, in assay [3], the “BTX Binding at 10 μM” value stood at 93%.
On to `CN(C)C(c1ccc(Cl)cc1)C1CCCCC1(O)Cc1cccc(C(F)(F)F)c1.Cl` (stereo not shown) [Example 63, 2-[(4-chlorophenyl)dimethylaminomethyl]-1-(3-trifluoromethylbenzyl)cyclohexanol, hydrochloride], for which testing at 10 mg/kg in assay [1] gave an inhibition in vivo of 86%. The “Diltiazem Binding at 10 μM” value in assay [2] was found to be 95%. The inhibition at 1 µM on NA transporter came out at 94%. Further, the “BTX Binding at 10 μM” value in assay [3] is listed as 99%.
On the same counts, the results for `CN(C)C(c1cccc(Oc2ccccc2)c1)C1CCCCC1(O)Cc1ccc(C(C)(C)C)cc1.Cl` (stereo not shown) [Example 64, 1-(4-tert.-butylbenzyl)-2-[dimethylamino-(3-phenoxyphenyl)methyl]cyclohexanol, hydrochloride] are 88%, 87%, 36% and 100%.
In assay [1], `CN(C)C(c1ccc(C#N)cc1)C1CCCCC1(O)c1ccc(C(F)(F)F)cc1.Cl` (stereo not shown) [Example 65, 4-{dimethylamino-[2-hydroxy-2-(4-trifluoromethylphenyl)cyclohexyl]methyl}benzonitrile, hydrochloride] yielded an inhibition in vivo at 10 mg/kg of 76%. The “Diltiazem Binding at 10 μM” value in assay [2] worked out at 72%. Moreover, the inhibition at 1 µM at NA transporter amounted to 0%. In assay [3], the “BTX Binding at 10 μM” value is 78%.
In turn, `Cc1ccccc1C(C1CCCCC1(O)c1ccccc1)N(C)C.Cl` (stereo not shown) [Example 66, 2-(dimethylamino-o-tolylmethyl)-1-phenylcyclohexanol, hydrochloride] displayed an inhibition in vivo at 10 mg/kg in assay [1] of 91%. In addition, the “Diltiazem Binding at 10 μM” value in assay [2] (hydrochloride) was determined as 65%. Moreover, the “NA Uptake Inhibition at 1 μM” value at NA transporter (hydrochloride) worked out at 15%. Moreover, in assay [3] (hydrochloride), the “BTX Binding at 10 μM” value was determined as 89%.
For `Cc1ccccc1C(C1CCCCC1(O)Cc1ccccc1)N(C)C.Cl` (stereo not shown) [Example 67, 1-benzyl-2-(dimethylamino-o-tolylmethyl)cyclohexanol, hydrochloride], the inhibition in vivo at 10 mg/kg in assay [1] was 84%. The “Diltiazem Binding at 10 μM” value in assay [2] turned out to be 98%. Besides, the inhibition at 1 µM at NA transporter was 83%. Also, the “BTX Binding at 10 μM” value in assay [3] stood at 97%.
The corresponding values for `CN(C)C(c1ccccc1)C1CCCCC1(O)CCCc1ccccc1.Cl` (stereo not shown) [Example 68, 2-(dimethylaminophenylmethyl)-1-(3-phenylpropyl)cyclohexanol, hydrochloride] are 55%, 88%, 49% and 98%.
`CN(C)C(c1ccccc1Cl)C1CCCCC1(O)CCc1ccc(F)cc1.Cl` (stereo not shown) [Example 69, 2-[(2-chlorophenyl)dimethylaminomethyl]-1-[2-(4-fluorophenyl)ethyl]cyclohexanol, hydrochloride] yielded an inhibition in vivo at 10 mg/kg in assay [1] of 45%. Further, the “Diltiazem Binding at 10 μM” value in assay [2] was found to be 93%. The inhibition at 1 µM on NA transporter was 76%. Further, the “BTX Binding at 10 μM” value in assay [3] was 96%.
Consider `CN(C)C(c1cccs1)C1CCCCC1(O)Cc1cccc(C(F)(F)F)c1.Cl` (stereo not shown) [Example 70, 2-[dimethylaminothiophen-2-ylmethyl]-1-(3-trifluoromethylbenzyl)cyclohexanol, hydrochloride], for which the “% Inhibition of the writhing reaction at 10 mg/kg intravenously” value in assay [1] is 98%. For the same compound, in assay [2], the “Diltiazem Binding at 10 μM” value was found to be 91%. At NA transporter, the “NA Uptake Inhibition at 1 μM” value is recorded as 74%. The “BTX Binding at 10 μM” value in assay [3] is reported as 93%.
In turn, `COC(=O)c1ccc(C2(O)CCCCC2C(c2ccccc2)N(C)C)cc1.Cl` (stereo not shown) [Example 71, Methyl-4-[2-(dimethylaminophenylmethyl)-1-hydroxycyclohexyl]benzoate, hydrochloride] yielded an inhibition in vivo at 10 mg/kg in assay [1] of 55%. The “Diltiazem Binding at 10 μM” value in assay [2] came out at 74%. Also, at NA transporter, the inhibition at 1 µM stood at 88%. The “BTX Binding at 10 μM” value in assay [3] is 81%.
